Reference: US20240327364A1, “THERAPEUTIC TARGETING OF GPR68 TO INDUCE FERROPTOSIS” (University Of Maryland, Baltimore, priority 2023, published 2024)

Columns and labels:
ASK2 = target: T1, ASK2 (Homo sapiens, UniProt O95382); test: KinomeScan; type: binding; conditions: read-out: % Control
T1 construct: purchased DiscoveRx (Fremont, CA)

AURKC = target: T2, AURKC (Homo sapiens, UniProt Q9UQB9); test: KinomeScan; type: binding; conditions: read-out: % Control
T2 construct: purchased DiscoveRx (Fremont, CA)

BRAF(V600E) = target: T3, BRAF(V600E) (Homo sapiens, UniProt P15056, V600E); test: KinomeScan; type: binding; conditions: read-out: % Control
T3 construct: purchased DiscoveRx (Fremont, CA)

BTK = target: T4, BTK (Homo sapiens, UniProt Q06187); test: KinomeScan; type: binding; conditions: read-out: % Control
T4 construct: purchased DiscoveRx (KinomeScan service)

CAMKK2 = target: T5, CAMKK2 (Homo sapiens, UniProt Q96RR4); test: KinomeScan; type: binding; conditions: read-out: % Control
T5 construct: purchased DiscoveRx (KinomeScan service)

CDK9 = CDK9 (Homo sapiens, UniProt P50750); test: KinomeScan; type: binding; conditions: read-out: % Control
CSNK2A1 = CSNK2A1 (Homo sapiens, UniProt P68400); test: KinomeScan; type: binding; conditions: read-out: % Control
DDR1 = target: T6, DDR1 (Homo sapiens, UniProt Q08345); test: KinomeScan; type: binding; conditions: read-out: % Control
T6 construct: purchased DiscoveRx (Fremont, CA), KinomeScan service

[1] = target: T7, EGFR(L747-S752del, P753S) (Homo sapiens, UniProt P00533, DEL747-752/P753S); test: KinomeScan; type: binding; conditions: read-out: % Control
T7 construct: purchased DiscoveRx (Fremont, CA), KinomeScan service

EGFR(L858R) = target: T8, EGFR(L858R) (Homo sapiens, UniProt P00533, L858R); test: KinomeScan; type: binding; conditions: read-out: % Control
T8 construct: purchased DiscoveRx (Fremont, CA), KinomeScan service

ERK3 = target: T9, ERK3 (Homo sapiens, UniProt Q16659); test: KinomeScan; type: binding; conditions: read-out: % Control
T9 construct: purchased DiscoveRx (Fremont, CA)

LYN = target: T10, LYN (Homo sapiens, UniProt P07948); test: KinomeScan; type: binding; conditions: read-out: % Control
T10 construct: purchased DiscoveRx

NEK3 = target: T11, NEK3 (Homo sapiens, UniProt P51956); test: KinomeScan; type: binding; conditions: read-out: % Control
T11 construct: purchased DiscoveRx

NLK = target: T12, NLK (Homo sapiens, UniProt Q9UBE8); test: KinomeScan; type: binding; conditions: read-out: % Control
T12 construct: purchased DiscoveRx

PFCDPK1(P. falciparum) = target: T13, PFCDPK1(P. falciparum) (Plasmodium falciparum, UniProt P62344); test: KinomeScan; type: binding; conditions: read-out: % Control
T13 construct: purchased DiscoveRx (Fremont, CA)

PKN1 = target: T14, PKN1 (Homo sapiens, UniProt Q16512); test: KinomeScan; type: binding; conditions: read-out: % Control
T14 construct: purchased DiscoveRx (Fremont, CA)

PKNB(M. tuberculosis) = target: T15, PKNB(M. tuberculosis) (Mycobacterium tuberculosis, UniProt P9WI81); test: KinomeScan; type: binding; conditions: read-out: % Control
T15 construct: purchased DiscoveRx (Fremont, CA)

PRKCE = target: T16, PRKCE (Homo sapiens, UniProt Q02156); test: KinomeScan; type: binding; conditions: read-out: % Control
T16 construct: purchased DiscoveRx (Fremont, CA)

STK33 = target: T17, STK33 (Homo sapiens, UniProt Q9BYT3); test: KinomeScan; type: binding; conditions: read-out: % Control
T17 construct: purchased DiscoveRx (Fremont, CA)

TGFBR1 = target: T18, TGFBR1 (Homo sapiens, UniProt P36897); test: KinomeScan; type: binding; conditions: read-out: % Control
T18 construct: purchased DiscoveRx (Fremont, CA)

TNK2 = target: T19, TNK2 (Homo sapiens, UniProt Q07912); test: KinomeScan; type: binding; conditions: read-out: % Control
T19 construct: purchased DiscoveRx (Fremont, CA)

TSSK1B = target: T20, TSSK1B (Homo sapiens, UniProt Q9BXA7); test: KinomeScan; type: binding; conditions: read-out: % Control
T20 construct: purchased DiscoveRx (Fremont, CA)

CGRP1 = target: T21, CGRP1 (Homo sapiens, UniProt O60894+Q16602); test: GPCR Profiler; type: cell-based
T21 construct: host or cells: Chem-1 cells with Gα15

GABAB1b = target: T22, GABAB1b (Homo sapiens, UniProt Q9UBS5); test: GPCR Profiler; type: cell-based
T22 construct: host or cells: Chem-1 cells expressing Gα15

GPR103 = target: T23, GPR103 (Homo sapiens, UniProt Q96P65); test: GPCR Profiler; type: cell-based
T23 construct: host or cells: Chem-1 cells expressing Gα15

GPR41 = target: T24, GPR41 (Homo sapiens, UniProt O14843); test: GPCR Profiler; type: cell-based
T24 construct: host or cells: Chem-1 cells with promiscuous Gα15

M3 = target: T25, M3 (Homo sapiens, UniProt P20309); test: GPCR Profiler; type: cell-based
T25 construct: host or cells: Chem-1 cells with promiscuous Gα15

MC4 = target: T26, MC4 (Homo sapiens, UniProt P32245); test: GPCR Profiler; type: cell-based
T26 construct: host or cells: Chem-1 cells with promiscuous Gα15

NMU1 = target: T27, NMU1 (Homo sapiens, UniProt Q9HB89); test: GPCR Profiler; type: cell-based
T27 construct: host or cells: Chem-1 cells expressing Gα15

NPBW1 = target: T28, NPBW1 (Homo sapiens, UniProt P48145); test: GPCR Profiler; type: cell-based
T28 construct: host or cells: Chem-1 cells expressing Gα15

Thrombin Activated PARs = test: GPCR Profiler; type: cell-based

T24 sequence (O14843 whole entry, species assumed): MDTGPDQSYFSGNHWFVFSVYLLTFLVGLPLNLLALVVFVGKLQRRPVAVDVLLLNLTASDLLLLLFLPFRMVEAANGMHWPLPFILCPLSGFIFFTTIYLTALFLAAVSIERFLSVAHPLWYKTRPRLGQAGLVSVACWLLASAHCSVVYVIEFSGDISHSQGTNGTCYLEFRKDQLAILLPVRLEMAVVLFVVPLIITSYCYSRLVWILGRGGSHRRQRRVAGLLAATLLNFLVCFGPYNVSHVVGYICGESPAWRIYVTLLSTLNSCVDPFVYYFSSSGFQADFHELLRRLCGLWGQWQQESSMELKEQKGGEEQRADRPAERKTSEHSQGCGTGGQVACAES
T27 sequence (Q9HB89 whole entry): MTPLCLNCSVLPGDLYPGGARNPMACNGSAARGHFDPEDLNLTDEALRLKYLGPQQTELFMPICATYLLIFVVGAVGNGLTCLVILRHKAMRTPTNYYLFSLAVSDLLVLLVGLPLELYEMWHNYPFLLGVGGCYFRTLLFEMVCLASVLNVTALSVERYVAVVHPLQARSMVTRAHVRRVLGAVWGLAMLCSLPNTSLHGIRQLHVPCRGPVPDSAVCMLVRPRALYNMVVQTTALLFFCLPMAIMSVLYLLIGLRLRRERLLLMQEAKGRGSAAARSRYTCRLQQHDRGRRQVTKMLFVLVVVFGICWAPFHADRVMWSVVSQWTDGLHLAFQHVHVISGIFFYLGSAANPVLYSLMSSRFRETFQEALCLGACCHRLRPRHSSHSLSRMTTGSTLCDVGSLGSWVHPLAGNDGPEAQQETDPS
T25 sequence (P20309 whole entry): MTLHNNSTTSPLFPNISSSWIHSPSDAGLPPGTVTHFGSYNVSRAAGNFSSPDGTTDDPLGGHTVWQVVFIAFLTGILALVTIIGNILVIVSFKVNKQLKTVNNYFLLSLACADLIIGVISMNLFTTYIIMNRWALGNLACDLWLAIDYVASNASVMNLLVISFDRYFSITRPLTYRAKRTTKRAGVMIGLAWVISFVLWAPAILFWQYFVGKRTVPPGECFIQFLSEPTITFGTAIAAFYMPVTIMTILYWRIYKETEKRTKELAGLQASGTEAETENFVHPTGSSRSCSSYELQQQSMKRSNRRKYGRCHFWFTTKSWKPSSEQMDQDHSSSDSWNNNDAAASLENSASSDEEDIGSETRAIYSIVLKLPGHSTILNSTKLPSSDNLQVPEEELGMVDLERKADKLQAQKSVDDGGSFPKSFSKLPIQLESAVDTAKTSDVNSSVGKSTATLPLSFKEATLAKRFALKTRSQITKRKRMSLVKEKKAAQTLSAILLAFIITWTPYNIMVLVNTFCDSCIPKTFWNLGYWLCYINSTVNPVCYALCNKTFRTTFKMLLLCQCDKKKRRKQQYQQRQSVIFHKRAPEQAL
T22 sequence (Q9UBS5 1-844 isoform Q9UBS5-2): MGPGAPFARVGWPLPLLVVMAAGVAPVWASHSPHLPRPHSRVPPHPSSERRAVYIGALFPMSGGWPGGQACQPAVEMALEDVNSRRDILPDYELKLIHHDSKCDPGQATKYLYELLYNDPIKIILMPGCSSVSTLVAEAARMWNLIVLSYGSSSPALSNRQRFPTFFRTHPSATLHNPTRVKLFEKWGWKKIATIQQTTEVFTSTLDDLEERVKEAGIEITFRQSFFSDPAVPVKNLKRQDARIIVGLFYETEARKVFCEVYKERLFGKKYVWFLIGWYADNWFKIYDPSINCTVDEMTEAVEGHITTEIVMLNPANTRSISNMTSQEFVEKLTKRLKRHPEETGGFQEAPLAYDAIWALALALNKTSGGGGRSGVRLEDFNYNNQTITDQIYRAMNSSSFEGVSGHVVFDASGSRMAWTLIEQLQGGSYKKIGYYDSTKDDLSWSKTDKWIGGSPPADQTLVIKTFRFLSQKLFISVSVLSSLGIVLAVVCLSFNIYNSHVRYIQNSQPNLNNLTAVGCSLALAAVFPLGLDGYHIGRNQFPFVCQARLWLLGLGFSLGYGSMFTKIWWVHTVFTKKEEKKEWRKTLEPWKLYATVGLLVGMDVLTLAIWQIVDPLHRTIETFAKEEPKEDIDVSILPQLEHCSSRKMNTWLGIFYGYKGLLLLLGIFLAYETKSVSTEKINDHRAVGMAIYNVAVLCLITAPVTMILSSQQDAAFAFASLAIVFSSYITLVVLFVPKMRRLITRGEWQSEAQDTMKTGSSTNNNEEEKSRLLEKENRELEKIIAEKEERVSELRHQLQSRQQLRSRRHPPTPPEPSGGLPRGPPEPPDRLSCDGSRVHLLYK
T22 sequence (O75899 42-941 partner): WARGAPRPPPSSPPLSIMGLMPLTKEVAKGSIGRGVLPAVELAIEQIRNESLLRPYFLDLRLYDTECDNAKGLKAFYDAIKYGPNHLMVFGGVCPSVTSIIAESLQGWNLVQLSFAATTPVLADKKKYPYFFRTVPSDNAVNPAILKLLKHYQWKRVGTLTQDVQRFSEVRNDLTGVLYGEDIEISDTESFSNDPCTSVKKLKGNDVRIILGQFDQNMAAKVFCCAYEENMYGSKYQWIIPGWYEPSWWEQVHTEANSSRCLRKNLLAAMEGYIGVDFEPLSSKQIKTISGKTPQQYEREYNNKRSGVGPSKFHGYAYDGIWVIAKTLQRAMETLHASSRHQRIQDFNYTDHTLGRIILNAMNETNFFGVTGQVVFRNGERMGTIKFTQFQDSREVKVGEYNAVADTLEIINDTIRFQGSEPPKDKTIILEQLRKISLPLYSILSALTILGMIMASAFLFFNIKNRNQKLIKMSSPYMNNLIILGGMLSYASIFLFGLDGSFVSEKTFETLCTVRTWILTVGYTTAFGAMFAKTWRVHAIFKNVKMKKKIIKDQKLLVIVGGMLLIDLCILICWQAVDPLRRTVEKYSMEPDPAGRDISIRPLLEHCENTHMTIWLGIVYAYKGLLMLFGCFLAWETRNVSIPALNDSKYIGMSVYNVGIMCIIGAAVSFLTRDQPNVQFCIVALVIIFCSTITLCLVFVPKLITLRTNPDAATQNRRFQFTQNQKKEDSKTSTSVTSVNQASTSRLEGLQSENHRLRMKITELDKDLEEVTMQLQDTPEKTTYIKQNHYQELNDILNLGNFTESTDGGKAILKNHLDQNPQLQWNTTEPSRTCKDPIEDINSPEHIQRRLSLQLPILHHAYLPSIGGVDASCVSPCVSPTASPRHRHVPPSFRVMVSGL
T28 sequence (P48145 whole entry): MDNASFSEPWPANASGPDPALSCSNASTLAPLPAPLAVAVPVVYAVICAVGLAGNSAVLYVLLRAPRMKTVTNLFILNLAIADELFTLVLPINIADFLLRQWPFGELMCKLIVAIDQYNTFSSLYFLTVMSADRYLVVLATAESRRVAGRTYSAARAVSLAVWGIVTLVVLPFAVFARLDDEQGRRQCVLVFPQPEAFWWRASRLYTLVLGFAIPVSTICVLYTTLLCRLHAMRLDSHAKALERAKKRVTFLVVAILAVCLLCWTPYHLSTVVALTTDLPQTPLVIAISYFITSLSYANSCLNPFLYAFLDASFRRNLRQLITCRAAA
T21 sequence (Q16602 23-461): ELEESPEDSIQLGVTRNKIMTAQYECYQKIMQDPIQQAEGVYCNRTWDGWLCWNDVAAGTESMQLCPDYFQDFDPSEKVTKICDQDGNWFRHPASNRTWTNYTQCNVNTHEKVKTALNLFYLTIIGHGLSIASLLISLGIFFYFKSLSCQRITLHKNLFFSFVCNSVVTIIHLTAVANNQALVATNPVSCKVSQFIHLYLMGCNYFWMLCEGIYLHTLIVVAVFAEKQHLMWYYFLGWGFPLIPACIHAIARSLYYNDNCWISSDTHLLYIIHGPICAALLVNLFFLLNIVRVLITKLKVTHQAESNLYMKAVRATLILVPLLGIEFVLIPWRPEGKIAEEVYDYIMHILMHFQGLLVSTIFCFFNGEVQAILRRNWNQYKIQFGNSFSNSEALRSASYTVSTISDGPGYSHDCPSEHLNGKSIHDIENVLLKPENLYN
T21 sequence (O60894 27-148 partner): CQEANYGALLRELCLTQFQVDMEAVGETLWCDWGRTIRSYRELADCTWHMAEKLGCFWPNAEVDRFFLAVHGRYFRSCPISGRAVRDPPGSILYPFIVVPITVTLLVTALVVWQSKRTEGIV
T26 sequence (P32245 whole entry): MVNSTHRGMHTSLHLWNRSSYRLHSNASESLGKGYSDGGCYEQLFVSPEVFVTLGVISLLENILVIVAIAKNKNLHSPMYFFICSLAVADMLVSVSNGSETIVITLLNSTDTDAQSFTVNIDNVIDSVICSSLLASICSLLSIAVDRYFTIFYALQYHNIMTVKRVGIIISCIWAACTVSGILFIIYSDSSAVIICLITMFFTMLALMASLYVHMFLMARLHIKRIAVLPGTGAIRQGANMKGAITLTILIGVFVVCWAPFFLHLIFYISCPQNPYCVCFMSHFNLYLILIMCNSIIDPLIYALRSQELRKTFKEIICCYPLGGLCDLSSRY
T23 sequence (Q96P65 whole entry): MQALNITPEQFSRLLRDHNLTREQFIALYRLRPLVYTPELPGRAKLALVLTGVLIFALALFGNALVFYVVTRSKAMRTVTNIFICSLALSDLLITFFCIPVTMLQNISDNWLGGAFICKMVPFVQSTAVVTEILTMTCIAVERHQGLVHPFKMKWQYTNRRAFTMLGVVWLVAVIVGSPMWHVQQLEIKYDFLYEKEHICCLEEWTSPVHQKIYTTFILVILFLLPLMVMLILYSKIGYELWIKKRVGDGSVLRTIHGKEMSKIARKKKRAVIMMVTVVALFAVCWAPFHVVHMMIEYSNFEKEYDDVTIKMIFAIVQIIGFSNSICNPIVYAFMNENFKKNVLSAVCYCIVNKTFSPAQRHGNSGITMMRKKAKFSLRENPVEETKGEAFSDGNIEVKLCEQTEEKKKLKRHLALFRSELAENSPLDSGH

Compound `CCc1ccc2c(c1)C1(NN=C(c3cccc4ccccc34)S1)C(=O)N2` (stereo not shown) [OGM1, 5-ethyl-5′-naphthalen-1-ylspiro[1H-indole-3,2′-3H-1,3,4-thiadiazole]-2-one] has a remaining binding at 10 µM (ASK2) of 100%, a remaining binding at 10 µM (AURKC) of 100% and a remaining binding at 10 µM (BRAF(V600E)) of 94%. For the same compound, the remaining binding at 10 µM (BTK) was 88%, the remaining binding at 10 µM (CAMKK2) was 89% and the remaining binding at 10 µM (CDK9) was 98%. For the same compound, the remaining binding at 10 µM (CSNK2A1) was 96%, the remaining binding at 10 µM (DDR1) was 100% and the remaining binding at 10 µM [1] was 99%. It also gave a remaining binding at 10 µM (EGFR(L858R)) of 100%, a remaining binding at 10 µM (ERK3) of 100% and a remaining binding at 10 µM (LYN) of 100%. For the same compound, the remaining binding at 10 µM (NEK3) was 71%, the remaining binding at 10 µM (NLK) was 100% and the remaining binding at 10 µM (PFCDPK1(P. falciparum)) was 95%. For the same compound, the remaining binding at 10 µM (PKN1) was 100%, the remaining binding at 10 µM (PKNB(M. tuberculosis)) was 79% and the remaining binding at 10 µM (PRKCE) was 68%. For the same compound, the remaining binding at 10 µM (STK33) was 91%, the remaining binding at 10 µM (TGFBR1) was 100% and the remaining binding at 10 µM (TNK2) was 100%. The remaining binding at 10 µM (TSSK1B) was 79%, the Antagonism (CGRP1; 10 uM) was −2.3 and the Agonism (CGRP1; 12.5 uM) was 0.5. The Antagonism (GABAB1b; 10 uM) was 0.1, the Agonism (GABAB1b; 12.5 uM) was 0.6 and the Antagonism (GPR103; 10 uM) was −7. The Agonism (GPR103; 12.5 uM) was −0.1, the Antagonism (GPR41; 10 uM) was 1.9 and the Agonism (GPR41; 12.5 uM) was 0.4. It also gave an Antagonism (M3; 10 uM) of −1.9, an Agonism (M3; 12.5 uM) of 0.7 and an Antagonism (MC4; 10 uM) of −5.4. The Agonism (MC4; 12.5 uM) was −0.3, the Antagonism (NMU1; 10 uM) was 6.2 and the Agonism (NMU1; 12.5 uM) was 1.8. The Antagonism (NPBW1; 10 uM) was 22.8, the Agonism (NPBW1; 12.5 uM) was 0.5 and the Antagonism (Thrombin Activated PARs; 10 uM) was 3.2. For the same compound, the Agonism (Thrombin Activated PARs; 12.5 uM) was 1.
